Experimental data as given in patent US8940331B2, “Hydrogels, methods of making hydrogels, methods of using hydrogels, and methods of isolating, trapping, attracting, and/or killing cancer cells” (The Board of Trustees of the Leland Stanford Junior …, priority 2008, dated 2015).
Read-outs that look alike come from different tables or passages of the source. Square brackets hold non-standard residues; d marks the D form. Peptide text beside a SMILES is read from it. Nspe = C[C@H](NCC(=O)O)c1ccccc1; Nphe = O=C(O)CNCc1ccccc1; Nlys = NCCCCNCC(=O)O

Columns and labels:
[1] = type: cell-based; conditions: MTS assay, cells treated 24 h, concentration causing 50% cell death
Method: (§1) A library of cationic, amphipathic peptoid oligomers (“capetoids”) with various chain lengths, charges, helicity, hydrophobicity and amphipathicity have been synthesized. Their activities towards several in vitro cultured cancer cell lines were tested via MTS assays. Primary dermal fibroblasts and freshly isolated red blood cells were also tested to estimate their biosafety. […] In some concentration ranges, these peptoids kill cancer cells efficiently while being relatively safe to primary dermal fibroblasts. […] Furthermore, the actions of these peptoids were not affected by the known multidrug resistance. In MCF 7 cells and the multidrug resistant MCF 7 cells (kindly provided by Prof. Brandy Sikic at Stanford) which overexpress P-glycoproteins, these peptoids had similar cytotoxicities.

human RBCs = type: cell-based
Method: as §1

[2] = MTS cell viability assay, primary dermal fibroblasts; type: cell-based; conditions: MTS assay, cells treated 24 h; concentration causing 50% cell death; read-out: LC50 Primary dermal fibroblast
Method: as §1

breast cancer cells = experiment: In vitro chemotaxis transwell assay; type: cell-based
From the text: Different chemoattractants can be chosen with regard to the cancer types of interest. As an example, Table 2 summarizes chemoattractant candidates for breast cancer. The efficacies and dosages of chemoattractants are being characterized by in vitro chemotaxis assays. The chemotactic effects of an important candidate, stromal cell-derived factor 1 (SDF-1), have been confirmed in vitro using the transwell assay.

[3] = tested on: Primary dermal fibroblast; experiment: MTS cell viability assay, primary dermal fibroblasts; type: cell-based; conditions: in vitro; data not shown
Method: as §1

[4] = read-out: LC50 Lncap (prostate cancer)
[5] = read-out: LC50 MCF7 (breast cancer)
[6] = read-out: LC50 MEL28 (Melanoma)
[7] = read-out: LC50 Ovcar3 (ovarian cancer)

Row | Compound | CC50 [1, 4] [µM] | CC50 [1, 5] [µM] | CC50 [1, 6] [µM] | CC50 [1, 7] [µM] | HC10 Red blood cells (human RBCs) [µM] | CC50 [2] [µM] | Chemotactic effects (breast cancer cells) | Killing of primary fibroblasts compared with cancer cell lines [3] | HC10 Red blood cells (human RBCs; concentration causing 10% hemolysis of human RBCs) [µM]
1 | NCCCCNCC(=O)N(CC(=O)N(CC(=O)N(CCCCN)CC(=O)N(CC(=O)N(CC(=O)N(CCCCN)CC(=O)N(CC(=O)N(CC(=O)N(CCCCN)CC(=O)N(CC(=O)N(CC(N)=O)Cc1ccccc1)Cc1ccccc1)Cc1ccccc1)Cc1ccccc1)Cc1ccccc1)Cc1ccccc1)Cc1ccccc1)Cc1ccccc1 [Peptoid 1achiral, H-(NLys-Npm-Npm)4-NH2] (H-[Nlys][Nphe][Nphe][Nlys][Nphe][Nphe][Nlys][Nphe][Nphe][Nlys][Nphe][Nphe]-NH2) | 10.5 | 15 | 18.5 | 16 | 183 | 39.5 |  |  | 
2 | C[C@@H](c1ccccc1)N(CC(N)=O)C(=O)CN(CCCCN)C(=O)CN(C(=O)CN(C(=O)CN(CCCCN)C(=O)CN(C(=O)CN(C(=O)CN(CCCCN)C(=O)CN(C(=O)CN(C(=O)CNCCCCN)[C@@H](C)c1ccccc1)[C@@H](C)c1ccccc1)[C@@H](C)c1ccccc1)[C@@H](C)c1ccccc1)[C@@H](C)c1ccccc1)[C@@H](C)c1ccccc1 [Peptoid 111mer, H-(NLys-Nspe-Nspe)3-NLys-Nspe-NH2] (H-[Nlys][Nspe][Nspe][Nlys][Nspe][Nspe][Nlys][Nspe][Nspe][Nlys][Nspe]-NH2) | 8 | 9 | 15 | 10.5 | 103 | 18.5 |  |  | 
3 | stromal cell-derived factor 1 [SDF-1] |  |  |  |  |  |  | confirmed |  | 
4 | COc1cccc2c1C(=O)c1c(O)c3c(c(O)c1C2=O)C[C@@](O)(C(=O)CO)C[C@@H]3O[C@H]1C[C@H](N)[C@H](O)[C@H](C)O1 [Doxorubicin, reference compound] |  |  |  |  |  |  |  | killed primary fibroblasts as efficiently as cancer cell lines | 
5 | CC(=O)O[C@@]12CO[C@@H]1C[C@H](O)[C@@]1(C)C(=O)[C@H](O)C3=C(C)[C@@H](OC(=O)[C@H](O)[C@@H](NC(=O)OC(C)(C)C)c4ccccc4)C[C@@](O)([C@@H](OC(=O)c4ccccc4)[C@H]21)C3(C)C [docetaxel, reference compound] |  |  |  |  |  |  |  | killed primary fibroblasts as efficiently as cancer cell lines | 
6 | C[C@@H](c1ccccc1)N(CC(N)=O)C(=O)CN(C(=O)CN(CCCCN)C(=O)CN(C(=O)CN(C(=O)CN(CCCCN)C(=O)CN(C(=O)CN(C(=O)CN(CCCCN)C(=O)CN(C(=O)CN(C(=O)CNCCCCN)[C@@H](C)c1ccccc1)[C@@H](C)c1ccccc1)[C@@H](C)c1ccccc1)[C@@H](C)c1ccccc1)[C@@H](C)c1ccccc1)[C@@H](C)c1ccccc1)[C@@H](C)c1ccccc1 [Peptoid 1, H-(NLys-Nspe-Nspe)4-NH2] (H-[Nlys][Nspe][Nspe][Nlys][Nspe][Nspe][Nlys][Nspe][Nspe][Nlys][Nspe][Nspe]-NH2) | 5 | 4.5 | 5 | 6.5 |  | 5 |  |  | 21000
7 | C[C@@H](c1ccccc1)N(CC(=O)N(CC(=O)N(CCCCN)CC(=O)N(CC(=O)N(CC(=O)N(CCCCN)CC(=O)N(CC(=O)N(CC(=O)N(CCCCN)CC(=O)N(CC(=O)N(CC(N)=O)Cc1ccccc1)Cc1ccccc1)Cc1ccccc1)Cc1ccccc1)Cc1ccccc1)Cc1ccccc1)Cc1ccccc1)C(=O)CNCCCCN [1achiral-Nspe 2, H-NLys-Nspe-Npm-(NLys-Npm-Npm)3-NH2] (H-[Nlys][Nspe][Nphe][Nlys][Nphe][Nphe][Nlys][Nphe][Nphe][Nlys][Nphe][Nphe]-NH2) | 8.5 | 14.5 | 18 | 15.5 | 160 | 36.5 |  |  | 
8 | C[C@@H](c1ccccc1)N(CC(N)=O)C(=O)CN(C(=O)CN(CCCCN)C(=O)CN(Cc1ccccc1)C(=O)CN(Cc1ccccc1)C(=O)CN(CCCCN)C(=O)CN(C(=O)CN(C(=O)CN(CCCCN)C(=O)CN(Cc1ccccc1)C(=O)CN(Cc1ccccc1)C(=O)CNCCCCN)[C@@H](C)c1ccccc1)[C@@H](C)c1ccccc1)[C@@H](C)c1ccccc1 [1-Npm2,3,8,9, H-(NLys-Npm-Npm-NLys-Nspe-Nspe)2-NH2] | 10.5 | 10 | 16.5 | 11 | 80 | 18.5 |  |  | 
